Measured values from ChEMBL document CHEMBL1127586, “Central cholinergic agents. 6. Synthesis and evaluation of 3-[1-(phenylmethyl)-4-piperidinyl]-1-(2,3,4,5-tetrahydro-1H-1-benzazepi n-8-yl)-1-propanones and their analogs as central selective acetylcholinesterase inhibitors” (J Med Chem, 1994).
Values joined by “and” are separate entries in the source; they are usually repeats but may differ in a detail not shown here. Equal values may be shown once.

Key:
Acetylcholinesterase = molecular target: T1, Acetylcholinesterase (Rattus norvegicus, UniProt P37136)
T1 sequence (P37136 whole entry): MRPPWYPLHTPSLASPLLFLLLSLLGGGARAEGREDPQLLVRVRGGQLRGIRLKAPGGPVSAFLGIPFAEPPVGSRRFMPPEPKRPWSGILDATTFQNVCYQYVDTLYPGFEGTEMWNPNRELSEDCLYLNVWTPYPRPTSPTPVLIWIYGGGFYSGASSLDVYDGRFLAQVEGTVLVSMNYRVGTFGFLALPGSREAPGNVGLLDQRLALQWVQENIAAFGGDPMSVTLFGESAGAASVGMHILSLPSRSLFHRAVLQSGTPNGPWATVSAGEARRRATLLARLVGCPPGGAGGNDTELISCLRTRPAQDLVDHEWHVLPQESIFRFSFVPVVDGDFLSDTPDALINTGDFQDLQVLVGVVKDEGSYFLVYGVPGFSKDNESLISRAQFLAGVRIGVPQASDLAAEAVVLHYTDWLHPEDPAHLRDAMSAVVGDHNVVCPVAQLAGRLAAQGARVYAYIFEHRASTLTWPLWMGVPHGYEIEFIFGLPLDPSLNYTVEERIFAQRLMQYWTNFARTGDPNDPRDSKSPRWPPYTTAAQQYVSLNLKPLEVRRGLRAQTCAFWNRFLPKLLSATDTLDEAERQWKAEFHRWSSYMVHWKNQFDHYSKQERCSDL
Description: Inhibition of acetylcholinesterase (AChE)

Rattus norvegicus [1] = assay: Peripheral cholinergic effects in male wistar rats when administered orally at a dose of 3 mg/Kg.; type: functional, organism-based
Rattus norvegicus [2] = assay: Effect of compound on peripheral cholinergic effects in male wistar rats when administered orally at a dose of 30 mg/Kg; […]; type: functional, organism-based
Rattus norvegicus [3] = species: Rattus norvegicus; conditions: dose 10 mg/kg; route oral
Description: Number of circlings observed for 30 min at 10 mg/kg orally administered dose in rats

Rattus norvegicus [4] = assay: Number of circlings observed for 30 min at 3 mg/kg orally administered dose in rats; type: functional; conditions: route oral
Rattus norvegicus [5] = assay: Peripheral cholinergic effects in male wistar rats when administered orally at a dose of 10 mg/Kg.; type: functional, organism-based
Rattus norvegicus [6] = assay: Effect of compound on peripheral cholinergic effects in male wistar rats when administered orally at a dose of 30 mg/Kg; fasciculation, lacrimation; type: functional, organism-based
Rattus norvegicus [7] = assay: Effect of compound on peripheral cholinergic effects in male wistar rats when administered orally at a dose of 30 mg/Kg; fasciculation, salivation; type: functional, organism-based
Rattus norvegicus [8] = assay: Effect of compound on peripheral cholinergic effects in male wistar rats when administered orally at a dose of 10 mg/Kg; fasciculation, lacrimation; type: functional, organism-based
Rattus norvegicus [9] = assay: Effect of compound on peripheral cholinergic effects in male wistar rats when administered orally at a dose of 10 mg/Kg; fasciculation, salivation; type: functional, organism-based
Rattus norvegicus [10] = assay: Number of circlings observed for 30 min at 1 mg/kg orally administered dose in rats; type: functional; conditions: route oral
Rattus norvegicus [11] = assay: Effect of compound on peripheral cholinergic effects in male wistar rats when administered orally at a dose of 1 mg/Kg; No significant change; type: functional, organism-based
Rattus norvegicus [12] = assay: Effect of compound on peripheral cholinergic effects in male wistar rats when administered orally at a dose of 3 mg/Kg; fasciculation; type: functional, organism-based
Rattus norvegicus [13] = assay: Effect of compound on peripheral cholinergic effects in male wistar rats when administered orally at a dose of 30 mg/Kg; fasciculation, lacrimation, salivation; type: functional, organism-based
Rattus norvegicus [14] = species: Rattus norvegicus; assay: Inhibition of circling behavior, percentage of control was reported; (p<0.05); type: functional; set-up: scale not given: the % may be the effect or the level left
Rattus norvegicus [15] = assay: Effect of compound on peripheral cholinergic effects in male wistar rats when administered orally at a dose of 30 mg/Kg; fasciculation, diarrhea; type: functional, organism-based
Rattus norvegicus [16] = assay: Effect of compound on peripheral cholinergic effects in male wistar rats when administered orally at a dose of 10 mg/Kg; salivation; type: functional, organism-based
[17] = LD50/MED ratio; type: ADME; conditions: read-out: Therapeutic index
[18] = ED50/MED ratio; type: functional
[19] = Acute toxicity in rat by peroral administration; type: organism-based; conditions: in vivo, po
Rattus norvegicus [20] = species: Rattus norvegicus; assay: animal or person; conditions: po
Description: Tested for effective inhibition by peroral administration

Rattus norvegicus [21] = species: Rattus norvegicus; assay: animal or person; conditions: read-out: MED
Description: Ameliorating effects on diazepam-induced memory impairment of passive avoidance response (no of rats)

Rattus norvegicus [22] = species: Rattus norvegicus
Description: Ameliorating effects on diazepam-induced memory impairment of passive avoidance response (no of rats) by peroral administration

Rattus norvegicus [23] = assay: Effect of compound on peripheral cholinergic effects in male wistar rats when administered orally at a dose of 3 mg/Kg; salivation; type: functional, organism-based

Row | Compound | IC50 (Acetylcholinesterase) [nM] | Activity (Rattus norvegicus [1]) | No. of circlings (Rattus norvegicus [4]) | Activity (Rattus norvegicus [5]) | further results
1 | COc1cccc(CN2CCC(CCC(=O)c3ccc4c(c3)CCN4)CC2)c1 | 2680 |  |  |  | 
2 | Cc1cccc(CN2CCC(CCC(=O)c3ccc4c(c3)NCCCC4)CC2)c1 | 224 | No activity |  |  | Activity (Rattus norvegicus [2]): Fasciculation; No. of circlings (Rattus norvegicus [3]): 61.4
3 | O=C(CCC1CCN(Cc2cccc(F)c2)CC1)c1ccc2c(c1)NCCCC2 |  | No activity | 98.4 | Fasciculation | Activity (Rattus norvegicus [6]): Fasciculation, Lacrimation
4 | O=C(CCC1CCN(Cc2ccccc2)CC1)c1ccc2c(c1)N(Cc1ccccc1)CCC2 | 1490 |  |  |  | 
5 | O=C(CCC1CCN(Cc2ccccc2)CC1)c1ccc2c(c1)N(Cc1ccccc1)CCCC2 | 3140 |  |  |  | 
6 | O=C(CCC1CCN(Cc2ccccc2)CC1)c1ccc2c(c1)CCCCN2 |  | No activity | 94.7 | Fasciculation | Activity (Rattus norvegicus [7]): Fasciculation, Salivation
7 | O=C(CCC1CCN(Cc2ccccc2)CC1)c1ccc2c(c1)NCCC2 |  | No activity | 60.5 | Fasciculation | 
8 | CCCN1CCCCc2ccc(C(=O)CCC3CCN(Cc4ccccc4)CC3)cc21 | 1330 |  |  |  | 
9 | O=C(CCC1CCN(Cc2ccccc2)CC1)c1ccc2c(c1)CCN2 |  | No activity | 52.4 |  | Activity (Rattus norvegicus [8]): Fasciculation, Lacrimation; Activity (Rattus norvegicus [6]): Fasciculation, Lacrimation
10 | CCCCCN1CCc2cc(C(=O)CCC3CCN(Cc4ccccc4)CC3)ccc21 |  | No activity | 79 |  | Activity (Rattus norvegicus [9]): Fasciculation, Salivation
11 | O=C(CCC1CCN(Cc2ccc(F)cc2)CC1)c1ccc2c(c1)CCN2 | 89 | No activity | 107.4 |  | Activity (Rattus norvegicus [8]): Fasciculation, Lacrimation; Activity (Rattus norvegicus [6]): Fasciculation, Lacrimation
12 | O=C(CCC1CCN(Cc2cccc(Cl)c2)CC1)c1ccc2c(c1)CCN2 | 59 |  |  |  | No. of circlings (Rattus norvegicus [3]): 94.9
13 | CCN1CCCCc2ccc(C(=O)CCC3CCN(Cc4ccccc4)CC3)cc21 | 376 |  |  |  | 
14 | COc1ccccc1CN1CCC(CCC(=O)c2ccc3c(c2)NCCCC3)CC1 | 2620 |  |  |  | 
15 | Cc1cccc(CN2CCC(CCC(=O)c3ccc4c(c3)CCN4)CC2)c1 |  | No activity | 104 | Fasciculation | 
16 | CN1CCCc2cc(C(=O)CCC3CCN(Cc4cccc(Cl)c4)CC3)ccc21 | 24 |  | 54.5 |  | No. of circlings (Rattus norvegicus [10]): 76.5; Activity (Rattus norvegicus [11]): No activity; Activity (Rattus norvegicus [12]): Fasciculation; Activity (Rattus norvegicus [8]): Fasciculation, Lacrimation; Activity (Rattus norvegicus [13]): Fasciculation, Lacrimation, Salivation; Control (Rattus norvegicus [14]): 58%
17 | O=C(CCC1CCN(Cc2ccccc2)CC1)c1ccc2c(c1)CCN2Cc1ccccc1 |  | No activity | 66.8 | Fasciculation | Activity (Rattus norvegicus [6]): Fasciculation, Lacrimation
18 | O=C(CCC1CCN(Cc2cccc(F)c2)CC1)c1ccc2c(c1)CCN2 |  | No activity | 84.3 | Fasciculation | 
19 | CN1CCc2cc(C(=O)CCC3CCN(Cc4ccccc4)CC3)ccc21 |  | No activity | 68.7 |  | Activity (Rattus norvegicus [8]): Fasciculation, Lacrimation; No. of circlings (Rattus norvegicus [3]): 51.9; Activity (Rattus norvegicus [13]): Fasciculation, Lacrimation, Salivation; Control (Rattus norvegicus [14]): 56.4%
20 | O=C(CCC1CCN(Cc2cccc(Cl)c2)CC1)c1ccc2c(c1)CCCN2Cc1ccccc1 | 164 |  |  |  | No. of circlings (Rattus norvegicus [3]): 88

Row | Compound | IC50 (Acetylcholinesterase) [nM] | Activity (Rattus norvegicus [1]) | No. of circlings (Rattus norvegicus [4]) | Activity (Rattus norvegicus [5]) | further results
21 | O=C(CCC1CCN(Cc2ccccc2)CC1)c1ccc2c(c1)NCC2 |  |  |  |  | No. of circlings (Rattus norvegicus [10]): 107.9
22 | CCCCN1CCc2cc(C(=O)CCC3CCN(Cc4ccccc4)CC3)ccc21 |  | No activity | 86.4 | Fasciculation | Activity (Rattus norvegicus [15]): Fasciculation, Diarrhea
23 | O=C(CCC1CCN(Cc2cccc([N+](=O)[O-])c2)CC1)c1ccc2c(c1)NCCCC2 | 390 |  |  |  | 
24 | O=C(CCC1CCN(Cc2ccccc2F)CC1)c1ccc2c(c1)CCN2 | 43 | No activity |  |  | Activity (Rattus norvegicus [16]): Salivation; No. of circlings (Rattus norvegicus [3]): 86.7; Activity (Rattus norvegicus [7]): Fasciculation, Salivation
25 | O=C(CCC1CCN(Cc2ccccc2Cl)CC1)c1ccc2c(c1)CCN2 | 76 |  |  |  | No. of circlings (Rattus norvegicus [3]): 67.5
26 | O=C(CCC1CCN(Cc2cccc(Cl)c2)CC1)c1ccc2c(c1)CCCN2 | 54 |  | 77.4 | Fasciculation | No. of circlings (Rattus norvegicus [10]): 70.1; Activity (Rattus norvegicus [11]): No activity; Activity (Rattus norvegicus [12]): Fasciculation; Activity (Rattus norvegicus [6]): Fasciculation, Lacrimation
27 | COc1cccc(CN2CCC(CCC(=O)c3ccc4c(c3)NCCCC4)CC2)c1 | 847 |  |  |  | 
28 | CN1CCCc2ccc(C(=O)CCC3CCN(Cc4ccccc4)CC3)cc21 |  | No activity | 105.6 | Fasciculation | Activity (Rattus norvegicus [6]): Fasciculation
29 | O=C(CCC1CCN(Cc2ccc(F)cc2)CC1)c1ccc2c(c1)NCCCC2 | 393 |  |  |  | 
30 | O=C(CCC1CCN(Cc2ccccc2)CC1)c1ccc2c(c1)NCCCC2 [ZANAPEZIL] | 97.7 | No activity | 75.1 | Fasciculation | selectivity ratio [17]: 334; Central selectivity [18]: 10.2; No. of circlings (Rattus norvegicus [10]): 87.5; LD50 [19]: 334 mg/kg; Activity (Rattus norvegicus [6]): Fasciculation, Lacrimation; ED50 (Rattus norvegicus [20]): 10.2 mg/kg; minimal effective dose (Rattus norvegicus [21]): 1 mg/kg; Avoidance time (Rattus norvegicus [22]): 106.6 s and 192.2 s and 193.2 s; Control (Rattus norvegicus [14]): 69.9%
31 | CN1CCCCc2ccc(C(=O)CCC3CCN(Cc4ccccc4)CC3)cc21 |  | No activity | 100.3 | Fasciculation | 
32 | O=C(CCC1CCN(Cc2ccccc2)CC1)c1ccc2c(c1)NCCCCC2 |  |  |  |  | No. of circlings (Rattus norvegicus [10]): 60.7; Activity (Rattus norvegicus [11]): No activity; Activity (Rattus norvegicus [8]): Fasciculation, Lacrimation; Activity (Rattus norvegicus [6]): Fasciculation, Lacrimation; Activity (Rattus norvegicus [23]): Salivation
33 | O=C(CCC1CCN(Cc2ccccc2)CC1)c1ccc2c(c1)N(Cc1ccccc1)CC2 | 853 |  |  |  | 
34 | CCCN1CCc2cc(C(=O)CCC3CCN(Cc4ccccc4)CC3)ccc21 |  |  |  |  | No. of circlings (Rattus norvegicus [3]): 81
35 | COc1ccccc1CN1CCC(CCC(=O)c2ccc3c(c2)CCN3)CC1 | 812 |  |  |  | 
36 | O=C(CCC1CCN(Cc2cccc([N+](=O)[O-])c2)CC1)c1ccc2c(c1)CCN2 |  |  |  |  | No. of circlings (Rattus norvegicus [3]): 91.1
37 | O=C(CCC1CCN(Cc2ccc(Cl)cc2)CC1)c1ccc2c(c1)CCN2 | 6360 |  |  |  | 
38 | CCN1CCc2cc(C(=O)CCC3CCN(Cc4ccccc4)CC3)ccc21 |  | No activity | 89.7 | Fasciculation | Activity (Rattus norvegicus [7]): Fasciculation, Salivation
39 | O=C(CCC1CCN(Cc2cccc(Cl)c2)CC1)c1ccc2c(c1)NCCCC2 | 333 |  |  |  | 
